PMC10580953, “In vitro and intracellular activities of novel thiopeptide derivatives against macrolide-susceptible and macrolide-resistant Mycobacterium avium complex” (Microbiology Spectrum, 2023)
Values after ≈ are worked out from the molar mass of the structure shown. “Also recorded” adds a separate entry of the source.

Key:
MAC in murine BMDMs [1] = system: MAC in murine BMDMs; set-up: method as in PMID 33519787; settings: cited from earlier work
[2] = system: macrolide-resistant M. avium clinical isolates in BMDMs; test: Intracellular activity in BMDMs, macrolide-resistant M. avium clinical isolates; assay type: cell-based, Mycobacterium avium; settings: five macrolide-resistant M. avium clinical isolates, 10 µg/mL, 72 h (Fig. 5)
Protocol: (§1) BMDMs were obtained from 6-week-old female BALB/c mice. Bone marrow cells were differentiated into BMDMs using Dulbecco’s Modified Eagle Medium (Biowest) supplemented with 10% fetal bovine serum (Biowest) and 10% L929 cell supernatant as previously described ([58]).
(§2) BMDMs were seeded at 4 × 10^5 cells/mL in a 48-well plate and incubated overnight at 37°C. MAC strains were infected at a multiplicity of infection of 3 for 4 h and washed with DPBS twice. The cells were then cultured in the absence or presence of drugs in triplicate wells for 72 h. After incubation, the cells were lysed with 0.05% Triton X-100, and the cell lysates serially diluted with DPBS were spotted on 7H10 agar plates supplemented with OADC to count the number of viable bacteria. Colonies were enumerated after 7 d of incubation at 37°C, and the values are reported as the mean CFU ± standard deviation (SD) per mL. All experiments were repeated at least three times independently.

[3] = system: macrolide-resistant M. avium; test: MIC by REMA, macrolide-resistant M. avium strains
Text: (§4) Reference strains were purchased from the American Type Culture Collection (ATCC; Manassas, VA, USA). All clinical MAC isolates, including macrolide-susceptible and macrolide-resistant strains, were kindly provided by Samsung Medical Center (SMC; Seoul, South Korea) and Asan Medical Center (AMC; Seoul, South Korea). All strains were cultivated in Middlebrook 7H9 liquid broth (Difco Laboratories, Detroit, MI) supplemented with 10% oleic acid-albumin-dextrose-catalase (OADC) or plated on Middlebrook 7H10 agar (Difco Laboratories) with 10% OADC enrichment at 37°C.
(§5) The MICs of all the reagents were determined using the REMA method based on guidelines by the Clinical and Laboratory Standards Institute ([57]). […] The cultures were diluted to an OD600 = 0.001 in 7H9 broth with 5% OADC. […] Two controls (broth only and bacteria only) were incubated to check for other contamination (broth only) and the growth of tested bacteria (bacteria only).
(§6) PCR amplification and sequencing for CLR were based on 23S rRNA. The primers and PCR conditions were as reported previously ([59]). PCR was carried out in a final volume of 20 µL and contained EzPCR Basic 5 × premix (ELPIS, Daejeon, South Korea), 13 µL of sterile dH2O, 1 µL of each forward and reverse primer, and 1 µL of template DNA. The PCR products were run on 1% agarose gels and purified using a NEXprep Gel/PCR Purification Mini Kit (Geneslabs, Gyeonggi, South Korea) for DNA cleanup. Purified PCR products were sequenced by Sanger sequencing in Bionics (Seoul, South Korea) with their gene-specific forward and reverse primers. Sequences obtained from Bionics were subjected to BLAST searches to compare nucleotide sequences with reference strains.

MAC in murine BMDMs [4] = test: Intracellular anti-MAC activity in infected BMDMs, summary statements for MAC; assay type: cell-based, Mycobacterium avium complex; settings: for intracellular growth of MAC in BMDMs: MAC-infected BMDMs, 72 h (Fig. 2)
Protocol: as §1, §2

M. intracellulare = test: MIC by resazurin microtiter assay (REMA), M. intracellulare strains
Protocol: (§7) Reference strains were purchased from the American Type Culture Collection (ATCC; Manassas, VA, USA). […] All strains were cultivated in Middlebrook 7H9 liquid broth (Difco Laboratories, Detroit, MI) supplemented with 10% oleic acid-albumin-dextrose-catalase (OADC) or plated on Middlebrook 7H10 agar (Difco Laboratories) with 10% OADC enrichment at 37°C.
as §5

[5] = system: macrolide-resistant M. intracellulare; test: MIC by REMA, macrolide-resistant M. intracellulare strains; settings: Mycobacterium intracellulare
Text: as §4, §5, §6

M. avium = test: MIC by resazurin microtiter assay (REMA), M. avium strains
Protocol: as §7, §5

[6] = Aqueous kinetic solubility; assay type: physicochemical; settings: for solubility at 2 h: aqueous buffer, kinetic from dmso stock, free form, deionized water pH 7.4, 1% DMSO
Protocol: The aqueous kinetic solubility was determined by preparing a 20 mM DMSO stock solution of test compounds and incubating an aliquot of this solution in deionized water at pH 7.4 to set a 1% final concentration of DMSO. In the case of HCl salt compounds, 1–2 mg of compound was weighed and dissolved in deionized water to yield an approximately 10 mg/mL solution. After initial mixing using brief vortexing and sonication, samples were equilibrated by shaking for 2 h at room temperature. Suspensions or solutions with visible particles were filtered through 0.22 µm PVDF membrane filters. The dissolved drug concentration was analyzed using UPLC-MS. To determine the solubility of the HCl salt, 1 mg of compound was weighed into a 2 mL glass tube, and a fixed volume of deionized water was added to yield an approximately 10 mg/mL solution. The solution was equilibrated by shaking for 24 h at room temperature. After equilibration, the vials were visually examined. If a clear solution was obtained, solubility was reported as >mg/mL.

BMDMs = test: Cell cytotoxicity test (trypan blue cell counting); assay type: cell-based, BALB/c mice; settings: 20 µg/mL, overnight incubation (Fig. S4)
Protocol: as §1
Cell viability was evaluated using trypan blue cell counting. BMDMs were plated at 4 × 10^5 cells/mL along with antibiotics in a 48-well cell culture plate. The antibiotics were serially diluted twofold from the highest concentration of 20 μg/mL to 1.25 μg/mL. After overnight incubation at 37°C with 5% CO2, BMDMs were isolated, and viable cells were counted using trypan blue dye exclusion. Cell viability was calculated as a percentage compared to the control. All experiments were repeated at least three times independently.

M. avium ATCC 700898 = settings: synergism FICI ≤0.5, additive 0.5 < FICI ≤ 1, indifferent 1 < FICI ≤ 4, antagonistic FICI >4
Protocol: (§3) To evaluate the efficacy of the combination of agent A and agent B, a fractional inhibitory concentration (FIC) index was calculated as follows: FICI = (FIC of agent A) + (FIC of agent B) = (MIC of agent A in combination/MIC of agent A alone) + (MIC of agent B in combination/MIC of agent B alone). Synergism is defined as FICI ≤0.5, additive as 0.5 < FICI ≤ 1, indifferent as 1 < FICI ≤ 4, and antagonistic as FICI >4. The cultured bacteria were diluted to a 0.005 OD600 in 7H9 broth containing 5% OADC, and the antimicrobial agents were prepared by serial dilutions to a final concentration of 0.03–4 μg/mL. For the evaluation of inhibitory concentrations, the plates were incubated at 37°C for 5–7 d. Then, MIC values were assessed by REMA, and the FICI was calculated.

[7] = system: M. intracellulare ATCC 13950; settings: synergism FICI ≤0.5, additive 0.5 < FICI ≤ 1, indifferent 1 < FICI ≤ 4, antagonistic FICI >4
Protocol: as §3

MAC strains = test: MIC by REMA, summary statements for MAC strains; assay type: cell-based, Mycobacterium avium complex; settings: Mycobacterium avium; range over tested MAC strains (Table 2); read-out: in vitro MIC for the tested MAC strains
[8] = system: M. intracellulare in murine BMDMs; test: Intracellular anti-MAC activity in infected BMDMs, M. intracellulare; assay type: cell-based, Mycobacterium intracellulare; settings: M. intracellulare ATCC 13950, 10 µg/mL, 72 hr
Protocol: as §1, §2

M. avium in murine BMDMs = test: Intracellular anti-MAC activity in infected BMDMs, M. avium; assay type: cell-based, Mycobacterium avium; settings: M. avium ATCC 700898, 10 µg/mL, 72 hr
Protocol: as §1, §2

[9] = Mycobacterium intracellulare, ATCC13950, M. intracellulare (ATCC 13950), reference strain
[10] = Mycobacterium intracellulare, M. intracellulare (SMC#8)
[11] = Mycobacterium intracellulare, M. intracellulare (SMC#12)
[12] = Mycobacterium intracellulare, M. intracellulare (SMC#699)
[13] = Mycobacterium avium, ATCC700898

CO[C@H]1/C=C/O[C@@]2(C)Oc3c(C)c(O)c4c(O)c(c(/C=N/N5CCN(C)CC5)c(O)c4c3C2=O)NC(=O)/C(C)=C\C=C\[C@H](C)[C@H](O)[C@@H](C)[C@@H](O)[C@@H](C)[C@H](OC(C)=O)[C@@H]1C [rifampicin]
intracellular activity against MAC (MAC in murine BMDMs [1]): little intracellular activity

C/C=C1\NC(=O)[C@H]([C@@H](C)O)NC(=O)c2csc(n2)-c2ccc(-c3nc(-c4nc(C(=O)NC5(C(=O)NCCCN6CCOCC6)CC5)cs4)cs3)nc2-c2csc(n2)[C@H]([C@@H](C)O)NC(=O)c2csc(n2)[C@H](C(C)C)NC(=O)c2csc1n2 [AJ-037]
intracellular bacterial growth in BMDMs [2]: notably inhibited intracellular bacterial growth | MIC ([3]; M. avium (SMC#1216), 23S rRNA A2058/A2059 C/A): 0.125 µg/mL (≈ 0.103 µM) | MIC ([3]; Mycobacterium avium): 0.125 µg/mL (≈ 0.103 µM) | MIC ([3]; Mycobacterium avium, M. avium (SMC#420), 23S rRNA A2058/A2059 C/A): 0.5 µg/mL (≈ 0.412 µM) | MIC ([3]; Mycobacterium avium, M. avium (SMC#422), 23S rRNA A2058/A2059 A/G): 1 µg/mL (≈ 0.824 µM) | MIC ([3]; Mycobacterium avium, M. avium (SMC#1213), 23S rRNA A2058/A2059 T/A): 0.5 µg/mL (≈ 0.412 µM) | intracellular growth of MAC in BMDMs (MAC in murine BMDMs [4]): remarkably inhibited the intracellular growth of MAC to a similar degree as CLR; also recorded: significantly reduced the number of MAC CFUs inside macrophages | intracellular activity in BMDMs infected with macrolide-resistant MAC clinical isolates (MAC in murine BMDMs [4]; macrolide-resistant MAC, 10 µg/mL, 72 h (Fig. 5 and 6)): significant decrease in CFUs | MIC (M. intracellulare; M. intracellulare (SMC#9)): 0.125 µg/mL (≈ 0.103 µM) | MIC (M. intracellulare; M. intracellulare (SMC#831)): 0.125 µg/mL (≈ 0.103 µM) | MIC (M. intracellulare; M. intracellulare (SMC#2087)): 0.125 µg/mL (≈ 0.103 µM) | MIC (M. intracellulare; Mycobacterium intracellulare): 0.125 µg/mL (≈ 0.103 µM) | MIC (M. intracellulare; [9]): 0.25 µg/mL (≈ 0.206 µM) | MIC (M. intracellulare; [10]): 0.25 µg/mL (≈ 0.206 µM) | MIC (M. intracellulare; [11]): 0.25 µg/mL (≈ 0.206 µM) | MIC (M. intracellulare; [12]): 0.25 µg/mL (≈ 0.206 µM) | MIC ([5]; M. intracellulare (AMC#24), 23S rRNA A2058/A2059 G/A): 0.125 µg/mL (≈ 0.103 µM) | MIC ([5]; M. intracellulare (SMC#104), 23S rRNA A2058/A2059 G/A): 0.125 µg/mL (≈ 0.103 µM) | MIC ([5]; M. intracellulare (SMC#414), 23S rRNA A2058/A2059 A/G): 0.125 µg/mL (≈ 0.103 µM) | MIC (M. avium; M. avium (SMC#7)): 0.25 µg/mL (≈ 0.206 µM) | MIC (M. avium; Mycobacterium avium): 0.25 µg/mL (≈ 0.206 µM) | MIC (M. avium; [13]): 0.25 µg/mL (≈ 0.206 µM) | MIC (M. avium; Mycobacterium avium, M. avium (SMC#6)): 0.125 µg/mL (≈ 0.103 µM) | MIC (M. avium; Mycobacterium avium, M. avium (SMC#1637)): 0.125 µg/mL (≈ 0.103 µM) | solubility at 2 h [6]: 103 µg/mL (≈ 84.9 µM) | Fold increase, HCl salt ([6]; solubility of HCl salt compared to MP2): ×71,428 fold | Fold increase, Free form ([6]; solubility of free form compared to MP2): ×1,471 fold | solubility ([6]; thermodynamic from solid, HCl salt in deionized water): 5000 µg/mL | Cell viability (BMDMs): decreased | drug-drug interaction with CLR (M. avium ATCC 700898): strongest synergistic effect; also recorded: Synergistic effects | drug-drug interaction with CLR [7]: relatively weak but synergistic effect; also recorded: Synergistic effects

C/C=C(\NC(=O)c1csc(-c2csc(-c3ccc4c(n3)-c3csc(n3)[C@H]([C@@H](C)O)NC(=O)c3csc(n3)[C@H](C(C)C)NC(=O)c3csc(n3)/C(=C/C)NC(=O)[C@H]([C@@H](C)O)NC(=O)c3csc-4n3)n2)n1)C(=O)NCC(C)=O [MP2, micrococcin P2, reference compound]
MIC (MAC strains): 0.125 to 0.5 µg/mL (≈ 0.109 to 0.438 µM) | intracellular growth of MAC in BMDMs (MAC in murine BMDMs [4]): completely abrogated | intracellular activity (CFU) in BMDMs [8]: ineffective | MIC (M. intracellulare; [9]): 0.125 µg/mL (≈ 0.109 µM) | MIC (M. intracellulare; Mycobacterium intracellulare, M. intracellulare (SMC#7)): 0.125 µg/mL (≈ 0.109 µM) | MIC (M. intracellulare; [10]): 0.125 µg/mL (≈ 0.109 µM) | MIC (M. intracellulare; Mycobacterium intracellulare, M. intracellulare (SMC#9)): 0.125 µg/mL (≈ 0.109 µM) | MIC (M. intracellulare; [11]): 0.125 µg/mL (≈ 0.109 µM) | MIC (M. intracellulare; [12]): 0.125 µg/mL (≈ 0.109 µM) | MIC (M. intracellulare; Mycobacterium intracellulare, M. intracellulare (SMC#831)): 0.125 µg/mL (≈ 0.109 µM) | MIC (M. intracellulare; Mycobacterium intracellulare, M. intracellulare (SMC#2087)): 0.125 µg/mL (≈ 0.109 µM) | MIC (M. avium; M. avium (SMC#6)): 0.125 µg/mL (≈ 0.109 µM) | MIC (M. avium; M. avium (SMC#7)): 0.125 µg/mL (≈ 0.109 µM) | MIC (M. avium; M. avium (SMC#1637)): 0.125 µg/mL (≈ 0.109 µM) | MIC (M. avium; Mycobacterium avium): 0.125 µg/mL (≈ 0.109 µM) | MIC (M. avium; [13]): 0.125 µg/mL (≈ 0.109 µM) | solubility at 2 h [6]: 0.07 µg/mL (≈ 0.0613 µM) | Cell viability (BMDMs): decreased | intracellular activity (CFU) in BMDMs (M. avium in murine BMDMs): ineffective
